Key:
[1] = tested on: full length SMN2 minigene mRNA containing SMN2 exon 7; assay: SMN2 minigene mRNA splicing RT-qPCR assay in cultured cells; type: cell-based, human; conditions: for SMN2 minigene FL mRNA relative to vehicle: HEK293H cells with SMN2-A minigene, rising concentrations, 24 hr, FIG. 3; for EC (1.5-fold): Homo sapiens, HEK293-H, HEK293H cells stably transfected with SMN2-A minigene, 24 hours, 7-point concentration curve, concentration giving 1.5-fold full length SMN2 mRNA vs vehicle, read-out: EC1.5x for production of full length SMN2 mRNA
In short: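 HEK293H cells stably carrying SMN2-A minigene treated 24 h (37 °C) with compound, 7-point 3.16-fold dilution, duplicates. Multiplex RT-qPCR on lysate with exon 7/luciferase primers and exon 7–8 junction probe (minigene-specific). Full-length transcript normalised to GAPDH by modified ΔΔCt, expressed relative to vehicle-treated cells.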

Smn protein = Smn protein in tissues of neonatal Δ7 SMA mice; type: in vivo; conditions: neonatal SMA Δ7 homozygous knockout mice, IP QD for 7 days (PND 3 to PND 9), brain, spinal cord, muscle, FIG. 12
Method: The tissue samples in Safe-Lock tubes are weighed and the volume of RIPA buffer containing the protease inhibitor cocktail is added based on the weight to volume ratios for each type of tissue: Brain (50 mgmL), Muscle (50 mgmL) and Spinal Cord (25 mgmL).
Tissues are homogenized using the TissueLyzer by bead milling. 5 mm stainless steel beads are added to the sample and shaken vigorously for 5 minutes at 30 Hz in the TissueLyzer. The samples are then centrifuged for 20 minutes at 14,000×g in a microcentrifuge and the homogenates transferred to the PCR plate. The homogenates are diluted in RIPA buffer to approximately 1 mgmL for HTRF and approximately 0.5 mgmL for total protein measurement using the BCA protein assay. […] Fluorescence for each well of the plate at 665 nm and 620 nm is measured on an EnVision multilabel plate reader (Perkin-Elmer). The total protein in the tissue homogenate is measured using the BCA assay according to the manufacturer's protocol.
The normalized fluorescence signal is calculated for each sample, Blank and vehicle control well by dividing the signal at 665 nm by the signal at 620 nm. Normalizing the signal accounts for possible fluorescence quenching due to the matrix effect of the tissue homogenate. […] The ΔF value for each tissue sample well is divided by the total protein quantity (determined using the BCA assay) for that tissue sample. […]

With `Cc1cn2cc(-c3cc4ccc(N5CCN(C)CC5)cc4c(=O)o3)nc2c(C)n1` [Cpd 65, 3-(6,8-dimethylimidazo[1,2-a]pyrazin-2-yl)-7-(4-methylpiperazin-1-yl)-1H-isochromen-1-one] the “SMN2 minigene FL mRNA relative to vehicle” value [1] was “increased SMN2 minigene FL mRNA at low concentrations”, the EC (1.5-fold) [1] was ≤ 0.1 µM and the “total protein normalized Smn level in tissues” value (Smn protein) was “dose dependently increased”.
For `Cc1cn2cc(-c3cc4ccc(N5CCN6CCC[C@H]6C5)cc4c(=O)o3)nc2c(C)n1` [Cpd 69, 3-(6,8-dimethylimidazo[1,2-a]pyrazin-2-yl)-7-[(8aS)-hexahydropyrrolo[1,2-a]pyrazin-2(1H)-yl]-1H-isochromen-1-one], the “SMN2 minigene FL mRNA relative to vehicle” value [1] was “increased SMN2 minigene FL mRNA at low concentrations” and the EC (1.5-fold) [1] was ≤ 0.1 µM.
